Data reported in patent publication US20240016781A1, “TREATMENT OF KRAS MUTANT CANCERS” (MEI Pharma, Inc., priority 2020, published 2024).
Like-named read-outs stand apart in the source and are kept apart here.

What was measured:
HCT-116 (CRC, KRAS G13D) = assay: Murine xenograft tumor growth inhibition, HCT-116; type: in vivo, SCID mice; conditions: HCT-116 xenograft; orally 50, 100, or 200 mg/kg OD for 11-14 days; all doses
Procedure: (§1) Voruciclib is an oral inhibitor of CDKs 9, 4, 6, and 1 currently being tested in Phase 1B clinical trials for B-cell malignancies and acute myeloid leukemia. Voruciclib inhibition of CDK9 leads to decreased expression of transcriptional targets of RNA Pol II, such as Mcl1 and MYC. To test whether Voruciclib could be effective in cancers driven by dysregulated KRAS-MYC signaling, ˜20 cancer cell lines with KRAS mutations (G12A, G12C, G12D, G12S, G12V, G13C, G13D, Q61H) were treated in preclinical studies with Voruciclib. MTS and Cell Titer Glo assays were used to monitor growth in vitro. […] To investigate MYC protein stability, MIA PACA-2 (G12C) cells were treated with 4 μM Voruciclib for 5-240 min, followed by SDS-PAGE and Western Blotting analysis with α-MYC and α-pSer62-MYC antibodies. […] A 60% decrease in pSer62 was observed after 5 min that reached 80% by 60 min. […] The ability of Voruciclib to inhibit tumor growth in vivo was also tested in murine xenograft models. KRAS mutant human cancer cells HCT-116 (CRC, KRAS G13D), SW-480 (CRC, KRAS G12V), and H-460 (NSCLC, KRAS Q61H) were injected subcutaneously into SCID mice. Once tumors reached 5-10 mm in diameter, Voruciclib or vehicle were administered orally at 50, 100, or 200 mg/kg OD for 11-14 days. Tumors were measured every 2-3 days, and growth inhibition relative to control was calculated. […]

clinical = conditions: human, in vivo
Description: (§2) Voruciclib half life is designated as t½ in the tables (expressed in hours).
(§3) Voruciclib volume of distribution is designated as Vz/F (expressed in liters).

[1] = SCID, mouse, in vivo, po, 100 mg/kg
Procedure: (§4) Animals were randomized into 2 groups when tumors reached 100 mm diameter. Group A assigned single dosing. […] Drug concentration was measured in tumor and plasma after last dose at the following time points: 0, 4, 8, 24, 48, 72 hrs. […] Concentration of voruciclib in plasma is in units of μg/ml and in μg/g for tumors.

[2] = PK of voruciclib, 2 weeks of daily dosing followed by 1 week without dosing in a 21-day cycle (Table 3); type: in vivo, human; conditions: for Accumulation Ratio (AUC0-24 h): Day 13/Day 1, 2 weeks daily dosing/1 week off; for AUC(0-inf) / Cmax / half-life / AUC(0-t) / Vd/F / Tmax: human, plasma, oral; for Vd/F: read-out: Vz/F; for Tmax: median
Description: as §2, §3

in vivo = conditions: SCID, mouse
Procedure: as §4

SW-480 (CRC, KRAS G12V) = assay: Murine xenograft tumor growth inhibition, SW-480; type: in vivo, SCID mice; conditions: SW-480 xenograft; orally 50, 100, or 200 mg/kg OD for 11-14 days; all doses
Procedure: as §1

[3] = system: cancer cell lines with KRAS mutations (G12A, G12C, G12D, G12S, G12V, G13C, G13D, Q61H); assay: MTS and Cell Titer Glo growth assays in ~20 KRAS mutant cancer cell lines; type: cell-based; conditions: ~20 cancer cell lines with KRAS mutations
Procedure: as §1

[4] = 75 mg, Day 1, 2 weeks daily dosing/1 week off, mean
[5] = 75 mg, Day 13, 2 weeks daily dosing/1 week off, mean
[6] = 150 mg, Day 1, 2 weeks daily dosing/1 week off, mean
[7] = 150 mg, Day 13, 2 weeks daily dosing/1 week off, mean
[8] = 300 mg, Day 1, 2 weeks daily dosing/1 week off, mean
[9] = 300 mg, Day 13, 2 weeks daily dosing/1 week off, n = 1
[10] = 600 mg, Day 1, 2 weeks daily dosing/1 week off, mean
[11] = 600 mg, Day 13, 2 weeks daily dosing/1 week off, mean
[12] = 850 mg, Day 1, 2 weeks daily dosing/1 week off, mean
[13] = 850 mg, Day 13, 2 weeks daily dosing/1 week off, mean

Structure (SMILES): CN1CC[C@@H](c2c(O)cc(O)c3c(=O)cc(-c4ccc(C(F)(F)F)cc4Cl)oc23)[C@@H]1CO [Voruciclib, (+)-trans-2-(2-Chloro-4-trifluoromethylphenyl)-5,7-dihydroxy-8-(2-hydroxymethyl-1-methylpyrrolidin-3-yl)-chromen-4-one]
- tumor growth inhibition relative to control (HCT-116 (CRC, KRAS G13D)): > 50%
- additional time to clear from the tissue after it clears the plasma (clinical): 3 days
- time for the drug to be eliminated from the plasma after stopping (clinical): 5 to 10 days
- volume of distribution (clinical): High volume of distribution
- volume of distribution relative to blood volume (clinical): ~60 times
- half-life (clinical; Half life): 24 to 28 h
- voruciclib level in tumor at 8 hours compared to 24 hours post dosing [1]: > 5 fold
- Accumulation Ratio (AUC0-24 h) ([2]; 75 mg, mean): 2.937
- Accumulation Ratio (AUC0-24 h) ([2]; 150 mg, mean): 2.129
- Accumulation Ratio (AUC0-24 h) ([2]; 300 mg, mean): 2.602
- Accumulation Ratio (AUC0-24 h) ([2]; 600 mg, mean): 2.064
- Accumulation Ratio (AUC0-24 h) ([2]; 850 mg, mean): 3.139
- AUC(0-inf) [2, 4]: 4210 ng·h/mL
- Cmax [2, 4]: 193 ng/mL
- half-life [2, 4]: 21.7 h
- AUC(0-t) ([2]; 75 mg, Day 1, 2 weeks daily dosing/1 week off, mean, read-out: AUC0-24): 2280 ng·h/mL
- AUC(0-t) ([2]; 75 mg, Day 1, 2 weeks daily dosing/1 week off, mean, read-out: AUC0-t): 2280 ng·h/mL
- Vd/F [2, 4]: 1280 L
- Tmax ([2]; 75 mg, Day 1, 2 weeks daily dosing/1 week off): 4 h
- AUC(0-inf) [2, 5]: 8660 ng·h/mL
- Cmax [2, 5]: 313 ng/mL
- half-life [2, 5]: 16.9 h
- AUC(0-t) ([2]; 75 mg, Day 13, 2 weeks daily dosing/1 week off, mean, read-out: AUC0-24): 5290 ng·h/mL
- AUC(0-t) ([2]; 75 mg, Day 13, 2 weeks daily dosing/1 week off, mean, read-out: AUC0-t): 5290 ng·h/mL
- Vd/F [2, 5]: 349 L
- Tmax ([2]; 75 mg, Day 13, 2 weeks daily dosing/1 week off): 4 h
- AUC(0-inf) [2, 6]: 15800 ng·h/mL
- Cmax [2, 6]: 456 ng/mL
- half-life [2, 6]: 32.5 h
- AUC(0-t) ([2]; 150 mg, Day 1, 2 weeks daily dosing/1 week off, mean, read-out: AUC0-24): 6980 ng·h/mL
- AUC(0-t) ([2]; 150 mg, Day 1, 2 weeks daily dosing/1 week off, mean, read-out: AUC0-t): 6980 ng·h/mL
- Vd/F [2, 6]: 1650 L
- Tmax ([2]; 150 mg, Day 1, 2 weeks daily dosing/1 week off): 4 h
- AUC(0-inf) [2, 7]: 28200 ng·h/mL
- Cmax [2, 7]: 896 ng/mL
- half-life [2, 7]: 26.1 h
- AUC(0-t) ([2]; 150 mg, Day 13, 2 weeks daily dosing/1 week off, mean, read-out: AUC0-24): 13000 ng·h/mL
- AUC(0-t) ([2]; 150 mg, Day 13, 2 weeks daily dosing/1 week off, mean, read-out: AUC0-t): 13000 ng·h/mL
- Vd/F [2, 7]: 459 L
- Tmax ([2]; 150 mg, Day 13, 2 weeks daily dosing/1 week off): 4 h
- AUC(0-inf) [2, 8]: 148000 ng·h/mL
- Cmax [2, 8]: 1000 ng/mL
- half-life [2, 8]: 138 h
- AUC(0-t) ([2]; 300 mg, Day 1, 2 weeks daily dosing/1 week off, mean, read-out: AUC0-24): 15700 ng·h/mL
- AUC(0-t) ([2]; 300 mg, Day 1, 2 weeks daily dosing/1 week off, mean, read-out: AUC0-t): 15700 ng·h/mL
- Vd/F [2, 8]: 3980 L
- Tmax ([2]; 300 mg, Day 1, 2 weeks daily dosing/1 week off): 6 h
- Cmax ([2]; 300 mg, Day 13, 2 weeks daily dosing/1 week off, mean): 2100 ng/mL
- AUC(0-t) ([2]; 300 mg, Day 13, 2 weeks daily dosing/1 week off, mean, read-out: AUC0-24): 40400 ng·h/mL
- AUC(0-t) ([2]; 300 mg, Day 13, 2 weeks daily dosing/1 week off, mean, read-out: AUC0-t): 40400 ng·h/mL
- Tmax ([2]; 300 mg, Day 13, 2 weeks daily dosing/1 week off): 12 h
- AUC(0-inf) [2, 9]: 59300 ng·h/mL
- half-life [2, 9]: 16.2 h
- Vd/F [2, 9]: 185 L
- AUC(0-inf) [2, 10]: 61500 ng·h/mL
- Cmax [2, 10]: 1630 ng/mL
- half-life [2, 10]: 32.5 h
- AUC(0-t) ([2]; 600 mg, Day 1, 2 weeks daily dosing/1 week off, mean, read-out: AUC0-24): 24800 ng·h/mL
- AUC(0-t) ([2]; 600 mg, Day 1, 2 weeks daily dosing/1 week off, mean, read-out: AUC0-t): 24800 ng·h/mL
- Vd/F [2, 10]: 1550 L
- Tmax ([2]; 600 mg, Day 1, 2 weeks daily dosing/1 week off): 4 h
- AUC(0-inf) [2, 11]: 86000 ng·h/mL
- Cmax [2, 11]: 2940 ng/mL
- half-life [2, 11]: 19 h
- AUC(0-t) ([2]; 600 mg, Day 13, 2 weeks daily dosing/1 week off, mean, read-out: AUC0-24): 43500 ng·h/mL
- AUC(0-t) ([2]; 600 mg, Day 13, 2 weeks daily dosing/1 week off, mean, read-out: AUC0-t): 43500 ng·h/mL
- Vd/F [2, 11]: 394 L
- Tmax ([2]; 600 mg, Day 13, 2 weeks daily dosing/1 week off): 4 h
- AUC(0-inf) [2, 12]: 109000 ng·h/mL
- Cmax [2, 12]: 1730 ng/mL
- half-life [2, 12]: 50 h
- AUC(0-t) ([2]; 850 mg, Day 1, 2 weeks daily dosing/1 week off, mean, read-out: AUC0-24): 31400 ng·h/mL
- AUC(0-t) ([2]; 850 mg, Day 1, 2 weeks daily dosing/1 week off, mean, read-out: AUC0-t): 31400 ng·h/mL
- Vd/F [2, 12]: 2150 L
- Tmax ([2]; 850 mg, Day 1, 2 weeks daily dosing/1 week off): 9 h
- AUC(0-inf) [2, 13]: 170000 ng·h/mL
- Cmax [2, 13]: 4450 ng/mL
- half-life [2, 13]: 22.4 h
- AUC(0-t) ([2]; 850 mg, Day 13, 2 weeks daily dosing/1 week off, mean, read-out: AUC0-24): 83900 ng·h/mL
- AUC(0-t) ([2]; 850 mg, Day 13, 2 weeks daily dosing/1 week off, mean, read-out: AUC0-t): 83900 ng·h/mL
- Vd/F [2, 13]: 315 L
- Tmax ([2]; 850 mg, Day 13, 2 weeks daily dosing/1 week off): 5 h
- Kp (in vivo): > 5
- tumor growth inhibition relative to control (SW-480 (CRC, KRAS G12V)): > 50%
- viability (growth in vitro) [3]: decreased viability in all cell lines tested
